Molecules are shown by their SMILES. Where “and” joins values, the source holds several entries; their conditions need not be identical. Equal entries are not always repeated.

Common to all, as to type: in vivo
The test system of data set [1] is summer barley (HORVS; cv. Montoya). The data set can be described thus: Absolute action: reduction of damage by mesosulfuron-methyl on summer barley, greenhouse post-emergence. More on the design: key to Absolute reduction in damage (difference): difference in % damage (0-100% visual scale vs untreated control). How it is done:
(§1) 2.2 Absolute Action of Selected Compounds of the Invention Using the Example of Reduction of Damage by Mesosulfuron-Methyl on Summer Barley (HORVS) The seeds of the crop plants to be treated are laid out in sandy loam in wood fiber or plastic pots (diameter ˜4 cm), covered with soil and grown in a greenhouse under good conditions for germination and growth. The trial plants were treated at the early leaf stage (BBCH10-BBCH12). In the course of this, the inventive compounds of the general formula (I) formulated in the form of wettable powders (WP) were sprayed onto the above-ground parts of the plants as an aqueous suspension with a water application rate corresponding to 800 l/ha with addition of wetting agent (e.g. 0.2% agrotin) in the specified dose. This was followed by the application of the herbicide. For this purpose, mesosulfuron-methyl, formulated in the form of water-dispersible granules (WG), was sprayed onto the above-ground parts of the plants in the form of an aqueous dispersion with a water application rate corresponding to 800 l/ha with addition of wetting agent (e.g. 0.2% agrotin) in a dose of 20 g/ha. The dose of the herbicide was chosen here such that it causes visually apparent damage (min. 30%, max. 75%) compared to untreated crop plants at the evaluation time on a control group of crop plants without safener treatment that were included in the same trial. After application, the plants were cultivated under good growth conditions in a greenhouse. The damage was visually assessed 14-21 days after application. The damage effect was assessed visually on a scale of 0-100% by comparison with untreated control plants, and averaged over 2-3 repeats per treatment. Examples: • 0%=no noticeable effect compared to the untreated plant • 20%=the treated plant population has 20% damage compared to the untreated control population (e.g. growth height, leaf damage, etc.) • 100%=treated plants completely damaged/killed.

Data set [2] has as its system summer wheat (TRZAS; cv. Triso). Nature of the data set: Absolute action: reduction of damage by mesosulfuron-methyl on summer wheat, greenhouse post-emergence. More on the design: key to Absolute reduction in damage (difference): percentage points of visual damage (0-100% scale vs untreated). How it is done:
as §1, with “2.1” for “2.2”, “Wheat (TRZAS)” for “Barley (HORVS)”, “(D” for “(I)”

The test system is the same in data set [3]. The data set can be described thus: Relative action (efficacy code): reduction of damage by mesosulfuron-methyl on summer wheat. More on the design: key: 0: no reduction in damage (appearance corresponding to the herbicide control); 1: slight reduction in damage; 2: distinct reduction in damage; 3: significant reduction in damage; 4: complete reduction in damage (appearance corresponding to the untreated control). The conditions noted are these: visual, 9-13 days after application. How it is done: 2.3 Relative Action of Selected Compounds of the Invention Using the Example of Reduction of Damage by Mesosulfuron-Methyl on Summer Wheat (TRZAS) The seeds of the crop plants to be treated are laid out in sandy loam in plastic pots (diameter μ4 cm), covered with soil and grown in a greenhouse under good conditions for germination and growth. The trial plants were treated at the early leaf stage (BBCH10-BBCH12). In the course of this, the inventive compounds of the general formula (I) formulated in the form of wettable powders (WP) were sprayed onto the above-ground parts of the plants as an aqueous suspension with a water application rate corresponding to 800 l/ha with addition of wetting agent (e.g. 0.2% Genapol-LRO or 0.2% Mero) in the specified dose. This was followed by the application of the herbicide. For this purpose, mesosulfuron-methyl, formulated in the form of water-dispersible granules (WG), was sprayed onto the above-ground parts of the plants in the form of an aqueous dispersion with a water application rate corresponding to 800 l/ha with addition of wetting agent (e.g. 0.2% Genapol-LRO or 1 l/ha Biopower) in a dose of 40-60 g/ha. The dose of the herbicide was chosen here such that it causes visually apparent damage (min. 30%, max. 75%) compared to untreated crop plants at the evaluation time on a control group of crop plants without safener treatment that were included in the same trial. After application, the plants were cultivated under good growth conditions in a greenhouse. 9-13 days after application, the efficacy of the test compounds was assessed visually. For this purpose, the appearance of the plants treated with the test compound and herbicide was compared to the corresponding herbicide controls (without safener; with clearly visible damage) and the untreated controls (without damage). The damage-reducing effect of the test compounds was expressed here in graded efficacy codes according to the following scheme: • 0: no reduction in damage (appearance corresponding to the herbicide control) • 1: slight reduction in damage • 2: distinct reduction in damage • 3: significant reduction in damage • 4: complete reduction in damage (appearance corresponding to the untreated control) The trials show clear efficacy of the inventive compounds selected by way of example with regard to the reduction in damage to the summer wheat crop plant (TRZAS; cv. Triso) caused by the herbicide mesosulfuron-methyl: […]

[4] abbreviates: safener 125 g/ha + mesosulfuron-methyl 20 g/ha.
The mark [5] stands for this setting: safener 125 g/ha + mesosulfuron-methyl 20 g/ha, visual, 14-21 days after application.
Setting [6] is: safener 100 g/ha + mesosulfuron-methyl 40-60 g/ha.
The mark [7] stands for this setting: safener 500 g/ha + mesosulfuron-methyl 40-60 g/ha.
Setting [8] is: mesosulfuron-methyl 20 g/ha alone (no safener), visual, 14-21 days after application, scale 0-100%.
Setting [9] is: safener 500 g/ha + mesosulfuron-methyl 20 g/ha.
The mark [10] stands for this setting: safener 500 g/ha + mesosulfuron-methyl 20 g/ha, visual, 14-21 days after application.

In the case of `CCOC(=O)COc1cc(-c2ccc(F)cc2F)n(-c2ccc(F)cc2)n1` [I.41-4], the “Absolute reduction in damage (difference)” value in data set [1] (setting [4]) was found to be 23; in data set [2] (setting [4]) it was 40. Moreover, the “Herbicide damage with compound of the formula (I)” value (“Herbicide damage with compound” for short) in data set [1] (setting [5]) amounted to 37%; in data set [2] (setting [5]), 13%.

On to `CCOC(=O)COc1cc(-c2ccc(Cl)cc2)n(-c2ccc(Cl)cc2F)n1` [I.20-49], for which the “Efficacy of the safener (efficacy code)” value in data set [3] (setting [6]) and in data set [3] (setting [7]) was 3 each time.

As to `O=C(O)COc1cc(-c2ccccc2)n(-c2ccc(Cl)cc2)n1` [I.3-7], in data set [2] (setting [4]), the “Absolute reduction in damage (difference)” value stood at 26. In addition, in data set [2] (setting [5]), the “Herbicide damage with compound” value was 37%.

As to `COC(=O)c1ccc(CNS(C)(=O)=O)cc1S(=O)(=O)NC(=O)Nc1nc(OC)cc(OC)n1` [mesosulfuron-methyl, reference compound], the “Herbicide damage without compound of the formula (I)” value in data set [1] (setting [8]) was 60%; in data set [2] (setting [8]), 53% and 63%.

As to `O=C(O)COc1cc(-c2ccc(F)cc2)n(-c2ccc(F)cc2)n1` [I.12-4], the “Absolute reduction in damage (difference)” value in data set [1] (setting [9]) stood at 27; in data set [2] (setting [9]), 46. The figures for the “Herbicide damage with compound” value in data set [1] (setting [10]) and in data set [2] (setting [10]) were 33% and 7%, respectively.

For the compound `O=C(O)COc1cc(-c2ccc(Cl)cc2)n(-c2ccc(F)cc2F)n1` [I.21-38], the “Absolute reduction in damage (difference)” value is 33 in data set [1] (setting [4]), 33 in data set [1] (setting [9]), 46 in data set [2] (setting [4]) and 50 in data set [2] (setting [9]). In addition, the “Herbicide damage with compound” value in data set [1] (setting [5]) is listed as 27%; in data set [1] (setting [10]) it was 27%; in data set [2] (setting [5]), 7%; in data set [2] (setting [10]) it was 3%.

Take `COc1ccccc1-n1nc(OCC(=O)O)cc1-c1ccccc1` [I.3-20]: the “Absolute reduction in damage (difference)” value in data set [2] (setting [9]) is 36. Besides, in data set [2] (setting [10]), the “Herbicide damage with compound” value was 17%.

Consider `O=C(O)COc1cc(-c2ccc(F)cc2F)n(-c2ccc(F)cc2F)n1` [I.42-38], for which the “Absolute reduction in damage (difference)” value in data set [1] (setting [4]) came out at 23; in data set [2] (setting [4]) it was 33. Also, the “Herbicide damage with compound” value in data set [1] (setting [5]) was 37%; in data set [2] (setting [5]), 20%.

Consider `O=C(O)COc1cc(-c2ccc(Cl)cc2F)n(-c2ccc(F)cc2F)n1` [I.48-38], for which the “Efficacy of the safener (efficacy code)” value in data set [3] (setting [6]) and in data set [3] (setting [7]) was 2 in each case.

For the compound `CCOC(=O)COc1cc(-c2ccc(F)cc2)n(-c2ccccc2OC)n1` [I.11-20], the “Absolute reduction in damage (difference)” value in data set [2] (setting [4]) and in data set [2] (setting [9]) was 46 each time. Further, the “Herbicide damage with compound” value in data set [2] (setting [5]) and in data set [2] (setting [10]) was 7% in each case.

Regarding `CCOC(=O)COc1cc(-c2ccc(F)cc2F)n(-c2ccccc2)n1` [I.41-1], the “Absolute reduction in damage (difference)” value in data set [2] (setting [4]) is 53. Also, in data set [2] (setting [5]), the “Herbicide damage with compound” value is 0%.

Consider `CCOC(=O)COc1cc(-c2ccc(Cl)cc2F)n(-c2ccc(Cl)cc2)n1` [I.47-7], for which the “Efficacy of the safener (efficacy code)” value in data set [3] (setting [6]) and in data set [3] (setting [7]) was 2 in each case.

Take `COc1ccccc1-n1nc(OCC(=O)O)cc1-c1ccc(Cl)cc1` [I.21-20]: the “Absolute reduction in damage (difference)” value in data set [2] (setting [4]) was determined as 30; in data set [2] (setting [9]), 36. Moreover, the “Herbicide damage with compound” value in data set [2] (setting [5]) was determined as 23%; in data set [2] (setting [10]) it was 17%.

For `COc1ccccc1-n1nc(OCC(=O)O)cc1-c1ccc(F)cc1F` [I.42-20], the “Absolute reduction in damage (difference)” value in data set [2] (setting [4]) stood at 40. In data set [2] (setting [5]), the “Herbicide damage with compound” value turned out to be 13%.

As to `CCOC(=O)COc1cc(-c2ccc(F)cc2F)n(-c2ccccc2OC)n1` [I.41-20], the figures for the “Absolute reduction in damage (difference)” value in data set [2] (setting [4]) and in data set [2] (setting [9]) were 36 and 43, respectively. The “Herbicide damage with compound” value was found to be 17% in data set [2] (setting [5]) and 10% in data set [2] (setting [10]).

Values taken from patent publication US20230389542A1, “USE OF [(1,5-DIPHENYL-1H-PYRAZOL-3-YL)OXY] ACETIC ACID DERIVATIVES AND THEIR SALTS AND COMPOSITIONS CONTAINING THEM, FOR REDUCING PHYTOTOXIC EFFECTS OF AGROCHEMICALS, IN PARTICULAR OF HERBICIDES, IN USEFUL PLANTS AND CROP PLANTS” (BAYER AKTIENGESELLSCHAFT, priority 2020, published 2023).
